Measurements: patent US8198311B2, “Modulators of glucocorticoid receptor, AP-1, and/or NF-κB activity and use thereof” (Bristol-Myers Squibb Company, priority 2006, dated 2012)
Where two headings read alike, the source gives them in different places.

Assays:
[1] = system: AP-1 induced transcriptional activity; test: Cellular Transrepressional Assay (AP-1 luciferase reporter in A549 cells, PMA-activated); assay type: cell-based; conditions: pAP-1-Luc, 10 ng/ml PMA, read-out: AP-1 (EC50, nM) (Cellular Transrepression Assay)
Outline: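 A549 cells stably carrying a 7×AP-1-luciferase reporter, stimulated with 10 ng/ml PMA with or without compound (0.1 nM-40 μM) for 7 h. Luciferase luminescence read 10 min after reagent addition; repression is percentage decrease of PMA-alone signal, EC50 by curve fitting.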

[2] = molecular target: T1, human full-length glucocorticoid receptor (Homo sapiens, UniProt P04150); test: Glucocorticoid Receptor Binding Assay (II), fluorescence polarization competitor kit (Fluormone GS1); conditions: cell lysate with recombinant human full-length GR
T1 construct: recombinantly expressed human full-length glucocorticoid receptor; purchased PanVera Co., Madison, Wis; P2816
T1 sequence (P04150 1-777): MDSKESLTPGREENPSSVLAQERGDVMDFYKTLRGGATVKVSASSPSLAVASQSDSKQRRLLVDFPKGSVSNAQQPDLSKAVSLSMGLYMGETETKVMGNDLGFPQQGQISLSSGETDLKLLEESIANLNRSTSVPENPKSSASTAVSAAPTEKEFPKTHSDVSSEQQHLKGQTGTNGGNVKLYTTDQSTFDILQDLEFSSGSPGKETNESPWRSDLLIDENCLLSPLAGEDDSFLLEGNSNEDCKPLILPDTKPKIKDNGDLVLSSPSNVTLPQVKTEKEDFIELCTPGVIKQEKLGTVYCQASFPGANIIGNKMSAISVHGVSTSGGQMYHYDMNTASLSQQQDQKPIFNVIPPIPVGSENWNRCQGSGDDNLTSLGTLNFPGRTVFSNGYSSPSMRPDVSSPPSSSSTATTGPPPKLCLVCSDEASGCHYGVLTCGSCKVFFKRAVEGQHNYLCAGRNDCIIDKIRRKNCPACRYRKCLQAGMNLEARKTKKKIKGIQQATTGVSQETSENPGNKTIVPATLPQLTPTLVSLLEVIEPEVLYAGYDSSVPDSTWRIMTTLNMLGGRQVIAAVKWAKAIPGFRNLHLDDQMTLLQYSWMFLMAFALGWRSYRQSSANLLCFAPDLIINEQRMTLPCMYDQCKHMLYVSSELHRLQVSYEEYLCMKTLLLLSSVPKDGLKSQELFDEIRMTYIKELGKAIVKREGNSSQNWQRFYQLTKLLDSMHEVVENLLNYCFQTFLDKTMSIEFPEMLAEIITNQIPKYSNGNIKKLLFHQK
Description: In order to measure the binding of compounds on the glucocorticoid receptor a commercially available kit was used (Glucocorticoid receptor competitor assay kit, PanVera Co., Madison, Wis., P2816). Briefly, a cell lysate containing recombinantly expressed human full-length glucocorticoid receptor was mixed with a fluorescently labeled glucocorticoid (1 nM Fluormone GS1) in the presence or absence of test compound. After one hour at room temperature, the fluorescence polarization (FP) of the samples were measured. […] Test molecules were analyzed in the concentration range from 2.4 nM to 40 microMolar.

[3] = molecular target: T2, human glucocorticoid receptor (Homo sapiens, UniProt P04150); test: Glucocorticoid Receptor Binding Assay (I), fluorescence polarization competitor kit (Fluormone GS Red); conditions: purified human recombinant full-length GR
T2 construct: purified human recombinant full-length glucocorticoid receptor (2 nM); purchased Invitrogen Part # 2893
T2 sequence (P04150 1-777): T1 sequence (P04150 1-777)
Outline: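 Fluorescence polarization competition: full-length recombinant human GR (2 nM) incubated with 1 nM Fluormone GS Red plus test compound (8.5E-05 to 5 μM) for 2 h at room temperature in the dark before FP read-out.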

SMILES	EC50 ([1]; Homo sapiens, A549, 7 h) [nM]	Ki [2] [nM]	Ki [3] [nM]	EC50 ([1]; 7 hours) [nM]
Cn1ncc2cc([C@H](c3ccccc3)C(C)(C)CNC(=O)CC(F)(F)F)ccc21 [Example 84, (S)—N-(2,2-Dimethyl-3-(1-methyl-1H-indazol-5-yl)-3-phenylpropyl)-3,3,3-trifluoropropanamide]	> 10000	115	–	–
O=C(CC(F)(F)F)NCCC(c1ccccc1)c1ccc2c(cnn2-c2ccc(F)cc2)c1 (stereo not drawn) [Example 111, 3,3,3-Trifluoro-N-(3-(1-(4-fluorophenyl)-1H-indazol-5-yl)-3-phenylpropyl)propanamide]	240	12	–	–
CC(C)(CNS(=O)(=O)CC(F)(F)F)[C@@H](c1ccccc1)c1ccc2[nH]ncc2c1 [(S)-83, (S)-N-(3-(1H-indazol-5-yl)-2,2-dimethyl-3-phenylpropyl)-2,2,2-trifluoroethanesulfonamide]	> 10000	34	–	–
CC(C)(CNC(=O)CC(F)(F)F)[C@H](c1ccccc1)c1ccc2[nH]ncc2c1 [(R)-82, (R)-N-(3-(1H-indazol-5-yl)-2,2-dimethyl-3-phenylpropyl)-3,3,3-trifluoropropanamide]	> 10000	628	–	–
CC(C)CC(c1ccc2c(cnn2-c2ccc(F)cc2)c1)C(C)(C)CNC(=O)NC(C)(C)CN1CCOCC1 (stereo not drawn) [Example 33, 1-(3-(1-(4-fluorophenyl)-1H-indazol-5-yl)-2,2,5-trimethylhexyl)-3-(2-methyl-1-morpholinopropan-2-yl)urea]	> 10000	74	–	–
O=S(=O)(CC(F)(F)F)NCC1CC1(c1ccccc1)c1ccc2c(cnn2-c2ccc(F)cc2)c1 (stereo not drawn) [Example 89, 2,2,2-trifluoro-N-((2-(1-(4-fluorophenyl)-1H-indazol-5-yl)-2-phenylcyclopropyl)methyl)ethanesulfonamide]	> 10000	43	–	–
CC(C)CC(c1ccc2c(cnn2-c2ccc(F)cc2)c1)C(C)(C)CNC(=O)OCC(C)(C)C (stereo not drawn) [Example 62, neopentyl 3-(1-(4-fluorophenyl)-1H-indazol-5-yl)-2,2,5-trimethylhexylcarbamate]	> 10000	–	11	–
CC(C)CC(c1ccc2c(cnn2-c2ccc(F)cc2)c1)C(C)(C)CNC(=O)N(C)C (stereo not drawn) [Example 55, 3-(3-(1-(4-fluorophenyl)-1H-indazol-5-yl)-2,2,5-trimethylhexyl)-1,1-dimethylurea]	698	–	1.4	–
CC(C)CC(c1ccc2c(cnn2-c2ccc(F)cc2)c1)C(C)(C)CNC(=O)N(C)C (stereo not drawn) [Example 65, 3-(3-(1-(4-fluorophenyl)-1H-indazol-5-yl)-2,2,5-trimethylhexyl)-1,1-dimethylurea]	–	1.4	–	–
CC(CNS(=O)(=O)CCC(F)(F)F)C(c1ccccc1)c1ccc2c(cnn2-c2ccc(F)cc2)c1 (stereo not drawn) [Example 96, 3,3,3-trifluoro-N-(3-(1-(4-fluorophenyl)-1H-indazol-5-yl)-2-methyl-3-phenylpropyl)propane-1-sulfonamide]	58	–	1.6	–
CC(C)CC(c1ccc2c(cnn2-c2ccc(F)cc2)c1)C(C)(C)CNC(=O)NC(c1ccccc1)c1ccccc1 (stereo not drawn) [Example 73, 1-benzhydryl-3-(3-(1-(4-fluorophenyl)-1H-indazol-5-yl)-2,2,5-trimethylhexyl)urea]	107	–	13	–
CC(C)CC(c1ccc2c(cnn2-c2ccc(F)cc2)c1)C(C)(C)CNC(=O)N[C@@H]1CCc2ccccc21 (stereo partly drawn) [Example 71B, 1-((R)-2,3-dihydro-1H-inden-1-yl)-3-(3-(1-(4-fluorophenyl)-1H-indazol-5-yl)-2,2,5-trimethylhexyl)urea]	511	–	6.5	–
CC(C)CC(c1ccc2c(cnn2-c2ccc(F)cc2)c1)C(C)(C)CNC(=O)C(=O)C(C)(C)C (stereo not drawn) [Example 67, N-(3-(1-(4-fluorophenyl)-1H-indazol-5-yl)-2,2,5-trimethylhexyl)-3,3-dimethyl-2-oxobutanamide]	164	–	5.6	–
CC(C)CC(c1ccc2c(cnn2-c2ccc(F)cc2)c1)C(C)(C)CNS(=O)(=O)NC(C)(C)C (stereo not drawn) [Example 63]	> 10000	–	4.3	–
CC(C)CC(c1ccc2c(cnn2-c2ccc(F)cc2)c1)C(C)(C)CNC(=O)N[C@@H](C)CO (stereo partly drawn) [Example 47, 1-(3-(1-(4-fluorophenyl)-1H-indazol-5-yl)-2,2,5-trimethylhexyl)-3-((S)-1-hydroxypropan-2-yl)urea]	204	–	1.3	–
CC(CNC(=O)CC(F)(F)F)C(c1ccccc1)c1ccc2c(cnn2-c2ccc(F)cc2)c1 (single isomer, unassigned) [Example 90C, 3,3,3-trifluoro-N-(3-(1-(4-fluorophenyl)-1H-indazol-5-yl)-2-methyl-3-phenylpropyl)propanamide]	–	–	2.4	7.4
Cc1cc(C(C)(C)NC(=O)NCC(C)(C)C(CC(C)C)c2ccc3c(cnn3-c3ccc(F)cc3)c2)ccn1 (stereo not drawn) [Example 53, 1-(3-(1-(4-fluorophenyl)-1H-indazol-5-yl)-2,2,5-trimethylhexyl)-3-(2-(2-methylpyridin-4-yl)propan-2-yl)urea]	306	–	1.8	–
CC(C)CC(c1ccc2c(cnn2-c2ccc(F)cc2)c1)C(C)(C)CNC(=O)CC(C)(C)C (stereo not drawn) [Example 66, N-(3-(1-(4-fluorophenyl)-1H-indazol-5-yl)-2,2,5-trimethylhexyl)-3,3-dimethylbutanamide]	177	–	3	–
CC(C)CC(c1ccc2c(cnn2-c2ccc(F)cc2)c1)C(C)(C)CNC(=O)NC1(CO)CCCC1 (stereo not drawn) [Example 42, 1-(3-(1-(4-fluorophenyl)-1H-indazol-5-yl)-2,2,5-trimethylhexyl)-3-(1-(hydroxymethyl)cyclopentyl)urea]	682	–	2.4	–
O=S(=O)(CC(F)(F)F)NCC(c1ccccc1)C(c1ccccc1)c1ccc2c(cnn2-c2ccc(F)cc2)c1 (stereo not drawn) [Example 100, 2,2,2-Trifluoro-N-(3-(1-(4-fluorophenyl)-1H-indazol-5-yl)-2,3-diphenylpropyl)ethanesulfonamide]	5000	–	18.3	–
CC(C)CC(c1ccc2c(cnn2-c2ccc(F)cc2)c1)C(C)(C)CNC(=O)N[C@@H](C)c1cccc2ccccc12 (stereo partly drawn) [Example 76, 1-(3-(1-(4-fluorophenyl)-1H-indazol-5-yl)-2,2,5-trimethylhexyl)-3-((S)-1-(naphthalene-1-yl)ethyl)urea]	> 10000	–	8.7	–
CCCC(c1ccc2c(cnn2-c2ccc(F)cc2)c1)C(C)(C)CNC(=O)NC(C)(C)C (stereo not drawn) [Example 104, 1-tert-butyl-3-(3-(1-(4-fluorophenyl)-1H-indazol-5-yl)-2,2-dimethylhexyl)urea]	23	–	2.1	–
CC(C)(C)NC(=O)NCC(C)(C)C(CC1CC1)c1ccc2c(cnn2-c2ccc(F)cc2)c1 (stereo not drawn) [Example 108, 1-tert-Butyl-3-(4-cyclopropyl-3-(1-(4-fluorophenyl)-1H-indazol-5-yl)-2,2-dimethylbutyl)urea]	8.1	–	1.7	–
CC(C)CC(c1ccc2c(cnn2-c2ccc(F)cc2)c1)C(C)(C)CNC(=O)N[C@@H](C)C(C)(C)C (stereo partly drawn) [Example 77, 1-((S)-3,3-dimethylbutan-2-yl)-3-(3-(1-(4-fluorophenyl)-1H-indazol-5-yl)-2,2,5-trimethylhexyl)urea]	143	–	7.4	–
CC(C)(CNC(=O)CC(F)(F)F)[C@@H](c1ccccc1)c1ccc2c(cnn2-c2ccc(F)cc2)c1 [(S)-17, (S)-3,3,3-trifluoro-N-(3-(1-(4-fluorophenyl)-1H-indazol-5-yl)-2,2-dimethyl-3-phenylpropyl)-propanamide]	13	–	0.63	–
CC(CNS(=O)(=O)CC(F)(F)F)C(c1ccccc1)c1ccc2c(cnn2-c2ccc(F)cc2)c1 (single isomer, unassigned) [Example 91C, 2,2,2-trifluoro-N-(3-(1-(4-fluorophenyl)-1H-indazol-5-yl)-2-methyl-3-phenylpropyl)ethanesulfonamide]	–	–	2.8	83
